Reference: ChEMBL document CHEMBL1201862, “PubChem BioAssay data set” (2004)
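Results reflect a 48-hour exposure of cells in 96-well plates to compound at five concentrations. GI50 is the concentration that inhibits growth by half.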 Calls of active or inactive are those of the source. No stated cut-off is given here; in the data, active = GI50 up to about 1.1 µM and inactive = higher.

Key:
Test in all cases: NCI anticancer screen, dose series, 48 h
A498 = tested on: A498
COLO 205 = tested on: COLO 205
EKVX = tested on: EKVX
HL-60 = tested on: HL-60
HOP-92 = tested on: HOP-92
K562 = tested on: K562
M14 = tested on: M14
MDA-N = tested on: MDA-N
Malme-3M = tested on: Malme-3M
NCI-H522 = tested on: NCI-H522
NCI/ADR-RES = tested on: NCI/ADR-RES
OVCAR-4 = tested on: OVCAR-4
OVCAR-8 = tested on: OVCAR-8
PC-3 = tested on: PC-3
SK-OV-3 = tested on: SK-OV-3
SNB-75 = tested on: SNB-75
SR = tested on: SR
UACC-257 = tested on: UACC-257
UO-31 = tested on: UO-31
KM-20L2 = tested on: KM-20L2

| Structure (SMILES) | GI50 (A498) | GI50 (COLO 205) | GI50 (EKVX) | GI50 (HL-60) | GI50 (HOP-92) | GI50 (K562) | GI50 (M14) | GI50 (MDA-N) | GI50 (Malme-3M) | GI50 (NCI-H522) | GI50 (NCI/ADR-RES) | GI50 (OVCAR-4) | GI50 (OVCAR-8) | GI50 (PC-3) | GI50 (SK-OV-3) | GI50 (SNB-75) | GI50 (SR) | GI50 (UACC-257) | GI50 (UO-31) | GI50 (KM-20L2) |
| --- | --- | --- | --- | --- | --- | --- | --- | --- | --- | --- | --- | --- | --- | --- | --- | --- | --- | --- | --- | --- |
| CC1=CCC([C@@](C)(O)CCCC(C)(C)N=C=S)CC1 (stereo not given in full) | 15.3 µM (inactive) | 16.1 µM (inactive) | 17 µM (inactive) | 21.8 µM (inactive) | 18.5 µM (inactive) | 19.3 µM (inactive) | 17.1 µM (inactive) | 18.4 µM (inactive) | 14.8 µM (inactive) | 17.3 µM (inactive) | 19.6 µM (inactive) | 16.5 µM (inactive) | 17.7 µM (inactive) | 18.6 µM (inactive) | 17.9 µM (inactive) | 17.8 µM (inactive) | 19.8 µM (inactive) | 19.4 µM (inactive) | 13.7 µM (inactive) | – |
| CC1=C(C#N)C(C#N)(C#N)C(NN(C)C)C1 (stereo not given) | 20.9 µM (inactive) | 3.83 µM (inactive) | 14 µM (inactive) | 3.59 µM (inactive) | 15.1 µM (inactive) | 12.2 µM (inactive) | 29 µM (inactive) | 10.1 µM (inactive) | 17.7 µM (inactive) | 4.07 µM (inactive) | 23.8 µM (inactive) | 30.7 µM (inactive) | 26.3 µM (inactive) | 20.4 µM (inactive) | > 100 µM (inactive) | 21.4 µM (inactive) | 25.4 µM (inactive) | 10.6 µM (inactive) | 13.5 µM (inactive) | – |
| O/N=C1/C(=C/c2ccc(Cl)c(Cl)c2)CCCC1C(NO)c1ccc(Cl)c(Cl)c1 (stereo not given) | 14.4 µM (inactive) | 18.3 µM (inactive) | 21.9 µM (inactive) | 17.6 µM (inactive) | – | 21.3 µM (inactive) | 17.4 µM (inactive) | – | 20 µM (inactive) | 10.1 µM (inactive) | – | 12.9 µM (inactive) | 18.7 µM (inactive) | – | 20.4 µM (inactive) | 16.6 µM (inactive) | – | 18.7 µM (inactive) | 18.7 µM (inactive) | 17.9 µM (inactive) |
| O=C/C(=C(/Br)I)c1ccccc1 | 18.6 µM (inactive) | 3.91 µM (inactive) | 15.3 µM (inactive) | 0.352 µM (active) | 2.28 µM (inactive) | 0.624 µM (active) | 1.8 µM (inactive) | 2.54 µM (inactive) | 1.92 µM (inactive) | 1.78 µM (inactive) | 3.95 µM (inactive) | 3.86 µM (inactive) | 2.83 µM (inactive) | 6.35 µM (inactive) | 14.5 µM (inactive) | 5.45 µM (inactive) | 0.448 µM (active) | 5.69 µM (inactive) | 4.97 µM (inactive) | – |
| CCOC(=O)CCC(NC(=O)c1ccc(Nc2cnc3ccc(C(F)(F)F)cc3n2)cc1)C(=O)OCC (stereo not given) | 26.4 µM (inactive) | > 100 µM (inactive) | 30.1 µM (inactive) | > 100 µM (inactive) | 8.36 µM (inactive) | > 100 µM (inactive) | > 100 µM (inactive) | > 100 µM (inactive) | 41 µM (inactive) | 65.6 µM (inactive) | 11 µM (inactive) | 8.2 µM (inactive) | 8.81 µM (inactive) | > 81.8 µM (inactive) | 16.5 µM (inactive) | 8.24 µM (inactive) | > 100 µM (inactive) | > 74.3 µM (inactive) | 45.5 µM (inactive) | – |
| COc1ccccc1/C=C/C(=O)c1sc(-c2cccnc2)nc1C | > 100 µM (inactive) | > 100 µM (inactive) | > 100 µM (inactive) | > 100 µM (inactive) | > 100 µM (inactive) | > 100 µM (inactive) | – | – | > 100 µM (inactive) | > 100 µM (inactive) | – | – | > 100 µM (inactive) | – | > 100 µM (inactive) | 22.8 µM (inactive) | – | > 100 µM (inactive) | > 100 µM (inactive) | > 100 µM (inactive) |
| N=c1oc2ccc(Cl)cc2cc1C(=O)Nc1ccccc1 | > 100 µM (inactive) | > 100 µM (inactive) | > 59 µM (inactive) | > 100 µM (inactive) | 10.5 µM (inactive) | 27 µM (inactive) | > 100 µM (inactive) | > 100 µM (inactive) | 6.5 µM (inactive) | 5.11 µM (inactive) | 17.3 µM (inactive) | > 100 µM (inactive) | 56.5 µM (inactive) | > 100 µM (inactive) | 23.3 µM (inactive) | 23.6 µM (inactive) | > 100 µM (inactive) | > 54.6 µM (inactive) | > 47 µM (inactive) | – |
| O=C1N[C@H](Cc2c[nH]cn2)C(=O)N2CCC[C@@H]12 | – | > 100 µM (inactive) | > 100 µM (inactive) | > 100 µM (inactive) | > 100 µM (inactive) | > 100 µM (inactive) | > 100 µM (inactive) | – | > 100 µM (inactive) | > 100 µM (inactive) | – | > 100 µM (inactive) | > 100 µM (inactive) | – | > 100 µM (inactive) | 65.8 µM (inactive) | – | > 100 µM (inactive) | > 100 µM (inactive) | > 100 µM (inactive) |
| CCCC(C)C[C@@H](C)CC(C)/C=C(\C)c1oc(=O)c(C)c(O)c1C.CC[C@@H](C)C[C@@H](C)C[C@@H](C)/C=C(\C)c1oc(=O)c(C)c(O)c1C (stereo not given in full) | – | 28.2 µM (inactive) | 15.2 µM (inactive) | 13.6 µM (inactive) | – | – | 15.5 µM (inactive) | – | 3.56 µM (inactive) | 14.8 µM (inactive) | – | 10.4 µM (inactive) | 20.3 µM (inactive) | – | – | 13.6 µM (inactive) | – | 14.7 µM (inactive) | 13.6 µM (inactive) | 12.6 µM (inactive) |
| O=[N+]([O-])C1=Cc2cc(Cl)ccc2OC1c1cccc2ccccc12 (stereo not given) | 1.86 µM (inactive) | 0.719 µM (active) | 1.27 µM (inactive) | 3.83 µM (inactive) | 1.34 µM (inactive) | 0.371 µM (active) | 1.23 µM (inactive) | 1 µM (active) | 1.57 µM (inactive) | 1.27 µM (inactive) | 2.07 µM (inactive) | 1.57 µM (inactive) | 0.614 µM (active) | 0.635 µM (active) | 1.61 µM (inactive) | 0.6 µM (active) | 0.224 µM (active) | 1.34 µM (inactive) | 1.26 µM (inactive) | – |
| CCCCCCN(N)C(=O)CC#N | > 100 µM (inactive) | 96.2 µM (inactive) | > 100 µM (inactive) | – | 53 µM (inactive) | 39.6 µM (inactive) | > 100 µM (inactive) | – | > 100 µM (inactive) | 23.9 µM (inactive) | – | 48.4 µM (inactive) | > 100 µM (inactive) | – | > 100 µM (inactive) | > 100 µM (inactive) | – | > 100 µM (inactive) | > 100 µM (inactive) | > 100 µM (inactive) |
| O=C1C(Br)=Cc2c(Cl)sc(Cl)c21 | 23.9 µM (inactive) | 6.76 µM (inactive) | 7.24 µM (inactive) | 1.87 µM (inactive) | 2.84 µM (inactive) | 1.07 µM (active) | 7.05 µM (inactive) | 2.44 µM (inactive) | 8.67 µM (inactive) | 5.16 µM (inactive) | 8.65 µM (inactive) | 2.74 µM (inactive) | 3.24 µM (inactive) | 2.55 µM (inactive) | 15.5 µM (inactive) | 13.3 µM (inactive) | 2.15 µM (inactive) | 5.45 µM (inactive) | 2.82 µM (inactive) | – |
| CC(C)=CCNc1ncnc2[nH]cnc12 | > 100 µM (inactive) | > 100 µM (inactive) | > 100 µM (inactive) | > 100 µM (inactive) | > 100 µM (inactive) | > 100 µM (inactive) | > 100 µM (inactive) | > 100 µM (inactive) | > 100 µM (inactive) | > 100 µM (inactive) | > 100 µM (inactive) | > 100 µM (inactive) | > 100 µM (inactive) | > 100 µM (inactive) | > 100 µM (inactive) | > 100 µM (inactive) | > 100 µM (inactive) | 37.1 µM (inactive) | > 100 µM (inactive) | – |
| COc1ccc(P2(=S)Oc3ccc(C(c4ccccc4)(c4ccccc4)c4ccccc4)cc3O2)cc1 (stereo not given) | 17.7 µM (inactive) | 20.2 µM (inactive) | 20.2 µM (inactive) | 15.5 µM (inactive) | 18.1 µM (inactive) | 17.8 µM (inactive) | 14.1 µM (inactive) | 18.5 µM (inactive) | 20 µM (inactive) | 16.7 µM (inactive) | 20.6 µM (inactive) | 13.2 µM (inactive) | 16 µM (inactive) | 13.9 µM (inactive) | 23 µM (inactive) | 13.7 µM (inactive) | 22.3 µM (inactive) | 19.2 µM (inactive) | 17 µM (inactive) | – |
| COc1ccc(C2CC(c3ccc(NS(=O)(=O)c4cc([N+](=O)[O-])ccc4C)cc3)=NN2S(=O)(=O)c2cc([N+](=O)[O-])ccc2C)cc1 (stereo not given) | 49.3 µM (inactive) | 51.4 µM (inactive) | 39.7 µM (inactive) | 51.6 µM (inactive) | 34.3 µM (inactive) | 36.1 µM (inactive) | 41.1 µM (inactive) | 35.8 µM (inactive) | 34.8 µM (inactive) | 22.3 µM (inactive) | 40.8 µM (inactive) | 40 µM (inactive) | 71.9 µM (inactive) | 33.8 µM (inactive) | 85.3 µM (inactive) | > 100 µM (inactive) | 51.4 µM (inactive) | 30.6 µM (inactive) | 32.1 µM (inactive) | – |
| CCN(CC)C(=S)SS(=O)(=O)c1ccccc1[N+](=O)[O-] | > 56.6 µM (inactive) | > 53.5 µM (inactive) | > 100 µM (inactive) | 2.47 µM (inactive) | 24 µM (inactive) | 11.7 µM (inactive) | 25 µM (inactive) | 38.9 µM (inactive) | 10.2 µM (inactive) | 0.404 µM (active) | 41.3 µM (inactive) | 44.3 µM (inactive) | 22.9 µM (inactive) | 54.5 µM (inactive) | > 71.4 µM (inactive) | 76.2 µM (inactive) | 0.359 µM (active) | 36.8 µM (inactive) | 14.5 µM (inactive) | – |
